Read-outs that look alike come from different tables or passages of the source.
System: métabolisation de la testostérone dans des épidermes reconstruits d'origine humaine
Assay: Effect on testosterone metabolisation in reconstructed human epidermis (Test 1; labelled testosterone, silica-plate chromatography, radioactivity counting)
Format: cell-based
Conditions: 10^-4M; for inhibition at 100 µM: relative to untreated control, 24 h, mean of 3 epidermes
Excerpt: Test 1 : mise en évidence de l'effet d'un extrait de Curcuma longa sur la métabolisation de la testostérone dans des épidermes reconstruits d'origine humaine (fournisseur : SkinEthic®).
Ces épidermes constituent un matériel biologique présentant une forte homologie avec l'épiderme humain, et permettant de tester de manière réaliste un produit destiné à être appliqué à la surface de la peau. Un extrait glycolique de feuilles de Curcuma longa a donc été testé, à différentes concentrations. Leur action a par ailleurs été comparée à celle d'un inhibiteur spécifique de la 5-alpha-réductase, le Finastéride® (molécule de référence dans ce type d'évaluation). Des épidermes reconstruits de 17 jours ont ainsi été pré-cultivés en plaque 24 puits, pendant 24 heures. Puis 100 µl de testostérone marquée ont été déposés sur la face cornée de chaque épiderme. Après 24 nouvelles heures, les milieux de culture ont été prélevés pour analyse. Il est alors regardé la métabolisation de la testostérone par chromatographie sur plaque de silice et par comptage direct de la radioactivité des différents spots, à l'aide du logiciel "Optiquant version 3 (packard)". Différents métabolites, et en particulier la dihydrotestostérone (DHT), sont identifiés à l'aide de standards. Chaque point est la moyenne de 3 mesures effectuées sur des épidermes différents.

CC(C)(C)NC(=O)[C@H]1CC[C@H]2[C@@H]3CC[C@H]4NC(=O)C=C[C@]4(C)[C@H]3CC[C@]12C [Finastéride]
inhibition at 100 µM (read-out: % inhibition métabolisation testostérone): 54%
inhibition at 100 µM (read-out: % inhibition transformation en DHT): 92%
Ratio DHT/testo. (untreated control 2,2): 0,1
